Measured values published in paper PMC11317440, “Soloxolone para-methylanilide effectively suppresses aggressive phenotype of glioblastoma cells including TGF-β1-induced glial-mesenchymal transition in vitro and inhibits growth of U87 glioblastoma xenografts in mice” (Frontiers in Pharmacology, 2024).

Columns and labels:
[1] = test system: EPNT-5 glioblastoma cells; assay: MTT cell viability assay, EPNT-5 cells, 48 h; type: cell-based; conditions: Mus musculus
Method: (§1) Cells were seeded in quadruplicate in 96-well plates at 10,000 cells/well and allowed to adhere overnight. The medium was then replaced with serum-free DMEM containing increasing concentrations of soloxolone amides for 48 h. After incubation, 3-(4,5-dimethylthiazol-2-yl)-2,5-diphenyltetrazolium bromide (MTT dye) was added at a final concentration of 0.5 mg/mL and left for 2 h. The resulting formazan crystals were dissolved in DMSO and the optical density was measured at 570 nm using a Multiscan RC plate reader (Thermo LabSystems, Helsinki, Finland).

[2] = test system: non-malignant human hFF3 fibroblasts; assay: MTT cell viability assay, hFF3 fibroblasts, 48 h; type: cell-based; conditions: 7 at 400 nM
Method: as §1

TGF-β1-treated U87 cells [3] = assay: ECM adhesion assay (Matrigel), U87 cells; type: cell-based, human; conditions: TGF-β1 50 ng/mL, 7 50 nM, 48 h
Method: Second, to assess cell adhesion to the extracellular matrix (ECM), an ECM adhesion assay was performed according to previously published method ([Guan et al., 2015]; [Hu et al., 2019]). Briefly, U87 cells were pretreated with TGF-β1 (50 ng/mL) and compound 7 (50 nM) for 48 h, and then seeded in 96-well plates coated with Matrigel (BD Biosciences, Bedford, MA, USA) at a concentration of 30,000 cells for 1 h (n = 3). After that, the wells were washed to remove non-adherent cells, adherent cells were fixed with formaldehyde, stained with crystal violet dye, and analyzed as described above.

TGF-β1-treated U87 cells [4] = assay: Transwell migration (xCELLigence), U87 cells; type: cell-based, human; conditions: U87, 7 50 nM, TGF-β1 50 ng/mL, at 72 h
Method: To perform transwell migration, U87 cells were pretreated with TGF-β1 (50 ng/mL) and compound 7 (50 nM) for 48 h. Subsequently, 250,000 cells were placed in the upper chamber of the CIM-16 xCELLigence plate in serum-free DMEM supplemented with compound 7 and TGF-β1 (n = 4), while the lower chamber was filled with DMEM containing 10% FBS. Cell migration was monitored for 72 h using the xCELLigence RTCA DP system (ACEA Biosciences Inc., San Diego, CA, USA). The electrodes placed under the porous membrane detected changes in resistance, which were then converted into cell indices proportional to the number of migrating cells.

[5] = test system: N-cadherin, fibronectin, Slug, OLIG2 expression in TGF-β1-induced U87 cells; assay: qRT-PCR of GMT markers in U87 cells; type: cell-based, human; conditions: 48 h
Method: Total RNA was extracted using TRIzol Reagent (Ambion, Austin, TX, USA) according to the manufacturer’s protocol. Subsequently, the first strand cDNA was synthesized from 4 μg of total RNA using an oligo (dT)18 primers and M-MuLV-RH revertase (Biolabmix, Novosibirsk, Russia). Finally, RT-qPCR was performed using specific primers (Table 1) and BioMaster SYBR Blue reagent kit (Biolabmix, Novosibirsk, Russia). Relative expression was determined by normalization to the housekeeping gene HPRT using the 2^−ΔΔCT method (Livak and Schmittgen 2001).

SMAD2/3 = SMAD2/3 nuclear translocation (immunofluorescence), U87 cells; type: cell-based, human; conditions: U87, 7 50 nM pretreatment 48 h, TGF-β1 50 ng/mL 1 h
Method: U87 cells (150,000 cells/well) were allowed to attach to glass coverslips in 24-well plates prior to 48-h incubation with compound 7 (50 nM) under serum-free conditions, followed by stimulation with TGF-β1 (50 ng/mL) for 1 h. After fixation in 4% formaldehyde for 20 min, cells were incubated with primary antibodies against Smad2/3 (1:100, ab202445) for 1 h under permeabilizing conditions (0.1% Triton X100, 5 mg/mL BSA, 37°C) and Alexa Fluor 488-conjugated secondary antibodies (1:500, ab150077) for 1 h in the dark. Finally, nuclei were stained with DAPI (1 μg/mL) for 10 min and cells were mounted on glass slides with Fluoromount-G (Thermo Fisher Scientific, Rockford, IL, USA). Images were captured using a LSM710 confocal microscope (Zeiss, Oberkochen, Germany) at ×40 magnification. Nuclear translocation was quantified by measuring the ratio of nuclear to perinuclear intensity of Alexa Fluor 488 in CellProfiler software (Broad Institute, Cambridge, MA, USA) for 50 cells per experimental group (n = 3).

U118 cells = assay: Colony formation assay, U118 cells; type: cell-based; conditions: Homo sapiens, 240 h, 10 days
Method: U87, U118 and EPNT-5 cells were seeded at a density of 200 cells/well in 96-well plates and treated with increasing concentrations of compound 7 (0–1,000 nM) dissolved in 10% FBS-containing DMEM (n = 5). On day 10, colonies were fixed with 4% formaldehyde and stained with crystal violet dye (0.1% w/v). Images were captured using the iBright 1,500 Imaging System (Invitrogen, USA) and the area of colonies with a minimum diameter of 100 µm was calculated using ImageJ. In the case of overlapping colonies, their total area was calculated. Finally, the area of the formed cell colonies was summed and normalized to the total colony area in the control.

[6] = test system: aldehyde dehydrogenase (ALDH) activity in U87 primary tumorspheres; assay: ALDH activity in U87 tumorspheres (AldeRed, flow cytometry); type: cell-based, human; conditions: 7 at 50 and 100 nM, regardless of the dose, 4 days
Method: To assess ALDH activity, U87 cells were dissociated from spheroids using TrypLE Express after 4 days of induction with compound 7 (0–100 nM) (n = 3). Cells were then stained with the AldeRed ALDH Detection Assay (SCR150; EMD Millipore, Burlington, MA, USA) according to the manufacturer’s protocol. Experimental controls included U87 cells grown in 2D culture and cells treated with the ALDH inhibitor diethylaminobenzaldehyde (DEAB). Gates of ALDH-positive cells were set according to the inhibitory effect of DEAB on control cells.
After staining, 10,000 cells per sample were analyzed on a NovoCyte flow cytometer using NovoExpress software (ACEA Biosciences, Inc., USA).

U87 cells = assay: MTT assay 72 h, 7 and TMZ alone and combined, synergy (HSA), U87; type: cell-based, human
Method: (§2) The drug synergy score was calculated for the dose-response matrix according to the highest single-agent (HSA) model using the SynergyFinder + web application (https://www.synergyfinder.org/).

EPNT-5 cells = assay: MTT assay 72 h, 7 and TMZ alone and combined, synergy (HSA), EPNT-5; type: cell-based, mouse
Method: as §2

[7] = Toxicity assessment in U87 glioblastoma-bearing mice; type: in vivo, athymic nude mice; conditions: 7 20 mg/kg i.p. or TMZ 10 mg/kg i.p. injected alone
Method: During the experiment, the general status and body weight of the animals were monitored. At the end of the experiment, livers and kidneys were collected and organ indices were calculated as (organ weight/body weight) × 100%, followed by the normalization of organ indices of experimental mice to organ indices of control mice.

Cc1ccc(NC(=O)[C@@]2(C)CC[C@]3(C)CC[C@]4(C)[C@H](C(=O)C=C5[C@@]6(C)C=C(C#N)C(=O)C(C)(C)C6CC[C@]54C)[C@@H]3C2)cc1 (some centres unmarked) [compound 7, N-p-tolyl-2-cyano-3,12-dioxo-18βH-olean-9(11),1(2)-dien-30-amide]
IC50 [1]: 257 nM | death of hFF3 cells [2]: about 21% | TGF-β1-induced adhesion of U87 cells to Matrigel (TGF-β1-treated U87 cells [3]): effectively suppressed this induction to almost control levels | suppression of transwell migration compared to cells stimulated with TGF-β1 alone (TGF-β1-treated U87 cells [4]): 1.7 fold | upregulation of OLIG2 ([5]; TGF-β1-induced U87 cells, 7 50 nM): 2 fold | reduction of N-cadherin expression compared to TGF-β1-stimulated cells ([5]; U87, 7 50 nM, TGF-β1 50 ng/mL): 67.6% | reduction of Slug expression compared to TGF-β1-stimulated cells ([5]; U87, 7 50 nM, TGF-β1 50 ng/mL): 35.8% | reduction of fibronectin expression compared to TGF-β1-stimulated cells ([5]; U87, 7 50 nM, TGF-β1 50 ng/mL): 39.2% | reduction of nuclear-cytoplasmic ratio of SMAD2/3 (SMAD2/3): 52% | inhibition at 0.05 µM (U118 cells; U118, 7 50 nM): 26.8% | inhibition at 0.1 µM (U118 cells; U118, 7 100 nM): 42.8% | reduction of the number of ALDH+ cells compared to the control [6]: 2.3 fold | IC50 (U87 cells; Homo sapiens, U-87 MG, MTT): 197 nM | reduction of the cytotoxic effect by NAC (U87 cells; U87, NAC 2 mM, TMZ 125 μM, 7 100 nM): 56.2% | effect of 7 on TMZ cytotoxicity in EPNT-5 cells (EPNT-5 cells; 7 at 50 nM): antagonistic effect | IC50 (EPNT-5 cells; Mus musculus, MTT): 199 nM | toxic effects (body weight and organ indices) [7]: no toxic effects
